Columns and labels:
[1] = system: Echinochloa oryzoides (Ard.) Fritsch.; assay: Preemergence weed control under flooded paddy conditions, ECHORC (Watergrass (Calif.)); format: in vivo; settings: flooded paddy, rated three to four weeks after treatment; note: meaning of each grade not given here
Cyperus iria = assay: Preemergence weed control under flooded paddy conditions, CYPIR (Rice Flatsedge); format: in vivo; settings: flooded paddy, rated three to four weeks after treatment; note: meaning of each grade not given here
[2] = system: Cyperus serotinus, Rottb.; assay: Preemergence weed control under flooded paddy conditions, CYPSE (Flatsedge); format: in vivo; settings: rated three to four weeks after treatment; note: meaning of each grade not given here
[3] = system: Monochoria vaginalis, Presl.; assay: Preemergence weed control under flooded paddy conditions, MOOVA (Monochoria); format: in vivo; settings: flooded paddy, rated three to four weeks after treatment; note: meaning of each grade not given here
Sagittaria pygmaea, L. = assay: Preemergence weed control under flooded paddy conditions, SAGPY (Arrowhead (Pygmaea)); format: in vivo; settings: flooded paddy, rated three to four weeks after treatment; note: meaning of each grade not given here
[4] = system: Oryza sativa, (L.) Tebonnet; assay: Rice tolerance to post-transplant applications under flooded paddy conditions (Example 187), ORYSAT (Rice, Tebonnet); settings: rated three to four weeks after treatment
[5] = 0.0313 kg/ha, preemergence weeds
[6] = 0.0625 kg/ha, preemergence weeds
[7] = 0.1250 kg/ha, preemergence weeds
[8] = 0.2500 kg/ha, preemergence weeds

Structure (SMILES) | herbicidal effect rating, ORYSAT (rice tolerance) ([4]; 0.0313 kg/ha) | herbicidal effect rating, ORYSAT (rice tolerance) ([4]; 0.0625 kg/ha) | herbicidal effect rating, ORYSAT (rice tolerance) ([4]; 0.1250 kg/ha) | herbicidal effect rating, ORYSAT (rice tolerance) ([4]; 0.2500 kg/ha) | herbicidal effect rating, ECHORC [1, 5] | herbicidal effect rating, ECHORC [1, 6] | herbicidal effect rating, ECHORC [1, 7] | herbicidal effect rating, ECHORC [1, 8] | herbicidal effect rating, CYPIR (Cyperus iria; [5]) | herbicidal effect rating, CYPIR (Cyperus iria; [6]) | herbicidal effect rating, CYPIR (Cyperus iria; [7]) | herbicidal effect rating, CYPIR (Cyperus iria; [8]) | herbicidal effect rating, CYPSE [2, 5] | herbicidal effect rating, CYPSE [2, 6] | herbicidal effect rating, CYPSE [2, 7] | herbicidal effect rating, CYPSE [2, 8] | herbicidal effect rating, MOOVA [3, 5] | herbicidal effect rating, MOOVA [3, 6] | herbicidal effect rating, MOOVA [3, 7] | herbicidal effect rating, MOOVA [3, 8] | other results
Cc1ccc(OCC(=O)OCC#Cc2ccccc2)c(-c2nsc3ccc(-n4c(=O)cc(C(F)(F)F)n(C)c4=O)cc23)c1 [Example 73, 3-Phenyl-2-propynyl {{2-{5-[3,6-dihydro-3-methyl-2,6-dioxo-4-(trifluoromethyl)-1(2H)-pyrimidinyl]-1,2-benzisothiazol-3-yl}-p-tolyl}oxy}acetate] | 2.5 | 3.0 | 4.0 | 6.0 |  |  |  |  |  |  |  |  |  |  |  |  |  |  |  |  | herbicidal effect rating, ECHORC ([1]; 0.0313 kg/ha, preemergence): 8.0; herbicidal effect rating, ECHORC ([1]; 0.0625 kg/ha, preemergence): 6.5; herbicidal effect rating, ECHORC ([1]; 0.1250 kg/ha, preemergence): 9.0; herbicidal effect rating, ECHORC ([1]; 0.2500 kg/ha, preemergence): 9.0; herbicidal effect rating, CYPIR (Cyperus iria; 0.0313 kg/ha, preemergence): 2.0; herbicidal effect rating, CYPIR (Cyperus iria; 0.0625 kg/ha, preemergence): 6.0; herbicidal effect rating, CYPIR (Cyperus iria; 0.1250 kg/ha, preemergence): 8.0; herbicidal effect rating, CYPIR (Cyperus iria; 0.2500 kg/ha, preemergence): 8.0; herbicidal effect rating, CYPSE ([2]; 0.0313 kg/ha, preemergence): 0.0; herbicidal effect rating, CYPSE ([2]; 0.0625 kg/ha, preemergence): 0.0; herbicidal effect rating, CYPSE ([2]; 0.1250 kg/ha, preemergence): 2.0; herbicidal effect rating, CYPSE ([2]; 0.2500 kg/ha, preemergence): 9.0; herbicidal effect rating, MOOVA ([3]; 0.0313 kg/ha, preemergence): 9.0; herbicidal effect rating, MOOVA ([3]; 0.0625 kg/ha, preemergence): 9.0; herbicidal effect rating, MOOVA ([3]; 0.1250 kg/ha, preemergence): 9.0; herbicidal effect rating, MOOVA ([3]; 0.2500 kg/ha, preemergence): 9.0; herbicidal effect rating, SAGPY (Sagittaria pygmaea, L.; 0.0313 kg/ha, preemergence): 0.0; herbicidal effect rating, SAGPY (Sagittaria pygmaea, L.; 0.0625 kg/ha, preemergence): 0.0; herbicidal effect rating, SAGPY (Sagittaria pygmaea, L.; 0.1250 kg/ha, preemergence): 0.0; herbicidal effect rating, SAGPY (Sagittaria pygmaea, L.; 0.2500 kg/ha, preemergence): 2.0
Cn1c(C(F)(F)F)cc(=O)n(-c2ccc3snc(C(Cl)Cl)c3c2)c1=O [Example 114, 3-[3-(Dichloromethyl)-1,2-benzisothiazol-5-yl]-1-methyl-6-(trifluoromethyl)-2,4(1H,3H)-pyrimidinedione] | 4.0 | 6.0 | 7.0 | 7.0 | 0.0 | 0.0 | 4.0 | 6.0 | 9.0 | 9.0 | 9.0 | 9.0 | 0.0 | 0.0 | 2.0 | 6.0 | 9.0 | 9.0 | 9.0 | 8.0 | herbicidal effect rating, SAGPY (Sagittaria pygmaea, L.; [5]): 0.0; herbicidal effect rating, SAGPY (Sagittaria pygmaea, L.; [6]): 2.0; herbicidal effect rating, SAGPY (Sagittaria pygmaea, L.; [7]): 6.0; herbicidal effect rating, SAGPY (Sagittaria pygmaea, L.; [8]): 6.0
Cn1c(C(F)(F)F)cc(=O)n(-c2ccc3snc(N4CCOCC4)c3c2)c1=O [Example 116, 1-Methyl-3-(3-morpholino-1,2-benzisothiazol-5-yl)-6-(trifluoromethyl)-2,4(1H,3H)-pyrimidinedione] | 0.0 | 0.0 | 0.0 | 0.0 | 0.0 | 0.0 | 0.0 | 0.0 | 0.0 | 0.0 | 0.0 | 0.0 | 0.0 | 0.0 | 0.0 | 0.0 | 0.0 | 2.0 | 8.0 | 8.0 | herbicidal effect rating, SAGPY (Sagittaria pygmaea, L.; [5]): 0.0; herbicidal effect rating, SAGPY (Sagittaria pygmaea, L.; [6]): 0.0; herbicidal effect rating, SAGPY (Sagittaria pygmaea, L.; [7]): 0.0; herbicidal effect rating, SAGPY (Sagittaria pygmaea, L.; [8]): 0.0
Cn1c(C(F)(F)F)cc(=O)n(-c2ccc3snc(NS(C)(=O)=O)c3c2)c1=O [Example 117, N-{5-[3,6-Dihydro-3-methyl-2,6-dioxo-4-(trifluoromethyl)-1(2H)-pyrimidinyl]-1,2-benzisothiazol-3-yl}methanesulfonamide] | 0.0 | 0.0 | 0.0 | 0.0 | 0.0 | 0.0 | 0.0 | 0.0 | 0.0 | 0.0 | 0.0 | 0.0 | 0.0 | 0.0 | 0.0 | 0.0 | 0.0 | 0.0 | 2.0 | 4.0 | herbicidal effect rating, SAGPY (Sagittaria pygmaea, L.; [5]): 0.0; herbicidal effect rating, SAGPY (Sagittaria pygmaea, L.; [6]): 0.0; herbicidal effect rating, SAGPY (Sagittaria pygmaea, L.; [7]): 0.0; herbicidal effect rating, SAGPY (Sagittaria pygmaea, L.; [8]): 0.0
CCN(CC)c1nsc2ccc(-n3c(=O)cc(C(F)(F)F)n(C)c3=O)cc12 [Example 118, 3-[3-(Diethylamino)-1,2-benzisothiazol-5-yl]-1-methyl-6-(trifluoromethyl)-2,4(1H,3H)-pyrimidinedione] | 0.0 | 0.0 | 0.0 | 0.0 | 0.0 | 0.0 | 0.0 | 0.0 | 0.0 | 0.0 | 0.0 | 0.0 | 0.0 | 0.0 | 0.0 | 0.0 | 0.0 | 0.0 | 0.0 | 0.0 | herbicidal effect rating, SAGPY (Sagittaria pygmaea, L.; [5]): 0.0; herbicidal effect rating, SAGPY (Sagittaria pygmaea, L.; [6]): 0.0; herbicidal effect rating, SAGPY (Sagittaria pygmaea, L.; [7]): 0.0; herbicidal effect rating, SAGPY (Sagittaria pygmaea, L.; [8]): 0.0
CCc1nsc2ccc(-n3c(=O)cc(C(F)(F)F)n(C)c3=O)cc12 [Example 119, 3-(3-Ethyl-1,2-benzisothiazol-5-yl)-1-methyl-6-(trifluoromethyl)-2,4(1H,3H)-pyrimidinedione] | 7.0 | 8.0 | 9.0 | 9.0 | 4.0 | 9.0 | 9.0 | 9.0 | 9.0 | 9.0 | 9.0 | 9.0 | 2.0 | 4.0 | 8.0 | 9.0 | 9.0 | 9.0 | 9.0 | 9.0 | herbicidal effect rating, SAGPY (Sagittaria pygmaea, L.; [5]): 6.0; herbicidal effect rating, SAGPY (Sagittaria pygmaea, L.; [6]): 8.0; herbicidal effect rating, SAGPY (Sagittaria pygmaea, L.; [7]): 8.0; herbicidal effect rating, SAGPY (Sagittaria pygmaea, L.; [8]): 9.0
Cc1ccc(OCC(=O)NS(C)(=O)=O)c(-c2nsc3ccc(-n4c(=O)cc(C(F)(F)F)n(C)c4=O)cc23)c1 [Example 121, N-{{{2-{5-[3,6-Dihydro-3-methyl-2,6-dioxo-4-(trifluoromethyl)-1(2H)-pyrimidinyl]-1,2-benzisothiazol-3-yl}-p-tolyl}oxy}acetyl}methanesulfonamide] | 3.0 | 4.0 | 6.0 | 9.0 | 6.0 | 7.0 | 8.0 | 9.0 | 0.0 | 0.0 | 2.0 | 4.0 | 0.0 | 0.0 | 2.0 | 4.0 | 9.0 | 9.0 | 9.0 | 9.0 | herbicidal effect rating, SAGPY (Sagittaria pygmaea, L.; [5]): 0.0; herbicidal effect rating, SAGPY (Sagittaria pygmaea, L.; [6]): 0.0; herbicidal effect rating, SAGPY (Sagittaria pygmaea, L.; [7]): 0.0; herbicidal effect rating, SAGPY (Sagittaria pygmaea, L.; [8]): 0.0
